Earlier results, collected in patent US9199026B2, “Modular extracorporeal systems and methods for treating blood-borne diseases” (SOMERSET GROUP ENTERPRISES, INC., priority 2011, dated 2015).

What was measured:
bacteria = conditions: for Spectrum: first line of the cell pair 'Spectrum, activity'; for activity (bactericidal / static): second line of the cell pair 'Spectrum
[1] = no group stated
Listeria = conditions: carbonation volume about 2, about 35° C., pressure up to about 350 MPa, about 300 seconds
pathogen = conditions: pH 6.0 compared to pH 7.4
[2] = at acidic pH
S. aureus = conditions: basic vs slightly acidic pH
MRSA = conditions: raised oxygen levels

## NCC[C@H](O)C(=O)N[C@@H]1C[C@H](N)[C@@H](O[C@H]2O[C@H](CN)[C@@H](O)[C@H](O)[C@H]2O)[C@H](O)[C@H]1O[C@H]1O[C@H](CO)[C@@H](O)[C@H](N)[C@H]1O [Amikacin]
bacteria
  Spectrum: Gram negative,
  activity (bactericidal / static): bactericidal
[1]
  pKa: 12.7

## O=C=O [CO2, Carbon dioxide]
Listeria
  effect on inactivation of Listeria: enhanced the inactivation of Listeria

## N#Cc1c(N2C[C@@H]3NCCO[C@H]3C2)c(F)cc2c(=O)c(C(=O)O)cn(C3CC3)c12 [Finafloxacin, finafloxacin]
pathogen
  increase in activity (lowering of the MIC): 4- to 8 fold

## CN(C)c1cc(NC(=O)CNC(C)(C)C)c(O)c2c1C[C@H]1C[C@H]3[C@H](N(C)C)C(O)=C(C(N)=O)C(=O)[C@@]3(O)C(O)=C1C2=O [Tigecycline]
bacteria
  Spectrum: Broad,
  activity (bactericidal / static): static
[1]
  pKa: 4.4

## Nc1nc(-n2cc(C(=O)O)c(=O)c3cc(F)c(N4CC(O)C4)c(Cl)c32)c(F)cc1F [delafloxacin]
[2]
  fraction under a neutral form: 50%

## CN[C@H](CC(C)C)C(=O)N[C@H]1C(=O)N[C@@H](CC(N)=O)C(=O)N[C@H]2C(=O)N[C@H]3C(=O)N[C@H](C(=O)N[C@H](C(=O)O)c4cc(O)cc(O)c4-c4cc3ccc4O)[C@H](O)c3ccc(c(Cl)c3)Oc3cc2cc(c3O[C@@H]2O[C@H](CO)[C@@H](O)[C@H](O)[C@H]2O[C@H]2C[C@](C)(N)[C@H](O)[C@H](C)O2)Oc2ccc(cc2Cl)[C@H]1O [vancomycin]
S. aureus
  killing S. aureus, basic versus slightly acidic conditions: killing S. aureus under basic conditions better than under slightly acidic conditions
MRSA
  effect of raising oxygen levels on resistance of MRSA: decreases the resistance of MRSA to vancomycin

## Colistin
bacteria
  Spectrum: Gram negative,
  activity (bactericidal / static): bactericidal
[1]
  pKa: 12.1
